Like-named read-outs stand apart in the source and are kept apart here.

One data set deals with SAP-deficient T cells. As to the kind of experiment: RICD assay in SAP silenced T cells. In kind it is cell-based, human. The conditions noted are these: 10 µM, 30 min pre-treatment, OKT3 10 ng/mL, 24 h. As to the method: PBL were isolated from healthy anonymous human donors by Ficoll-Paque PLUS (GE Healthcare, Chicago, IL) density gradient centrifugation, washed, and resuspended at 2 × 10^6 cell/mL in RPMI-GlutaMAX containing 10% heat inactivated FCS, 2 mM glutamine, and 100 U/mL of penicillin and streptomycin. T cells were activated with 1 µg/mL anti-CD3 (UCHT1) and anti-CD28 (clone CD28.2) antibodies. After three days, activated T cells were washed and cultured in medium additionated of 100 IU/mL rhIL-2 (Peprotech, Rocky Hill, NJ) at 1.2 × 10^6 cells/mL for ≥7 days by changing media for every 2–3 days.
Activated human PBLs were transfected with 200 pmol of siRNA oligonucleotides specific for the target protein (Stealth Select siRNA; Life Technologies, Carlsbad, CA) or a non-specific control oligo (Life Technologies, Carlsbad, CA). Transient transfections were performed using Amaxa nucleofector kits for human T cells (Lonza, Basel, Switzerland) and the Amaxa Nucleofector II or 4D systems (programmes T-20 or EI-115). Cells were cultured in IL-2 (100 IU/mL) for four days to allow target gene knockdown. Knockdown efficiency was periodically evaluated by Western blotting.
To test restimulation induced cell death, activated T cells (10^5 cells/well) were plated in triplicate in 96-well round-bottom plate and treated with anti-CD3 (clone OKT3) (10 ng/mL) in RPMI-GlutaMAX supplemented with 100 IU/mL rhIL-2 for 24 h. In these assays, inhibitors (10 µM) were added 30 min before the restimulation with OKT3. 24 h after treatment, cells were stained with 20 ng/mL propidium iodide and collected for a constant time of 30 s per sample on Attune Nxt Flow Cytometer (Thermo Fisher Scientific, Waltham, MA). Cell death is expressed as % cell loss and calculated as: % cell loss=(1−(number of viable cells in sample/number of viable cells in control)×100)
Results were expressed as mean ± standard error of the mean (SEM). We always compared controls and SAP silenced lymphocytes from the same donors as there is a large individual variability in RICD sensitivity.
To evaluate inhibitor efficacy in physiological context, we modelled XLP-1 by silencing SAP in primary peripheral blood T lymphocytes (PBLs) and restimulating them with anti-CD3 antibody (OKT3 10 ng/mL, 24 h). We pre-treated the cells with the indicated inhibitors for 30 min at a concentration of 10 µM[8].
Figure 9. DGKα inhibitors partially restores apoptosis in SAP deficient lymphocytes. […] After 4 days, the cells were restimulated with CD3 agonist OKT3 (10 ng/mL) in presence of respective inhibitor. Vehicle (DMSO) was used as control. Twenty-four hours later, the % of cell loss was evaluated by PI staining. Data are the mean ± SEM of nine independent experiments performed in triplicate.

Data set [1] concerns the target T1, DGKα (Homo sapiens, UniProt P23743). As to the kind of experiment: DGK assay on OST-DGKα enriched MDCK homogenates. The class given is biochemical. The arrangement: expressed in transfected cells; host or cells: MDCK cells (vector-infected, doxycycline-induced), crude homogenate. The conditions noted are these: for remaining activity at 100 µM: percentage of residual DGKα activity compared to DMSO control, OST-DGKα overexpressing cell lysates, saturating DAG and ATP, read-out: Residue activity at 100 µM; for IC50: residual OST-DGKα activity at 0.1, 1.0, 10.0 and 100.0 µM. As to the method: Madin-Darby canine kidney (MDCK) cells stably expressing One Strep Tag DGKα (OST-DGKα) were prepared by infecting MDCK cells with a vector expressing an inducible OST tagged DGKα constructs. MDCK cells infected with empty vector were used as controls. MDCK cells were cultured in MEM (minimal essential medium) with 5% FBS (foetal bovine serum) and 1% antibiotic–antimycotic solution. Routinely, cells were splitted every 3–4 days with trypsin–EDTA 0.25% in standard 100 mm dishes.
Large cultures of MDCK cells for enzyme preparation were done by plating 5 × 10^6 cells in 245 mm^2 dishes. Once they reached nearly 70% confluence, cells were treated with doxycycline (1 µg/mL, two days). […] Cells were collected with a rubber scraper, homogenised by passing them through a 29 G-needle syringe 20 times and stored in aliquots at –80 °C. Presence of OST-DGKα was confirmed by western blotting and enzyme assay, transduced DGKα has an activity >100 folds the endogenous DGK.
Essentionally, the same procedure was followed as reported previously in Velnati et al.[9] In brief, DGK activity was assayed by measuring initial velocities (5 min at 27 °C) in presence of saturating substrate concentrations. Reaction conditions: 0.9 µg/µL 1,2-dioleoyl-sn-glycerol, 5 mM ATP, 0.01 µCi/µL [γ^32P]-ATP, 1 mM sodium orthovanadate, 10 mM MgCl2, 1.2 mM EGTA in 7.5 mM Hepes pH 8[12]. Reaction mixture is assembled mixing enzyme (24.5 µL of homogenate), 100× inhibitor or DMSO (0.5 µL), 5× ATP solution (10 µL of 25 mM ATP, 0.05 µCi/µL [γ^32P]-ATP (Perkin-Elmer, Milan, Italy), 5 mM sodium orthovanadate, 50 mM MgCl2), and 3.3× DAG solution (15 µL of 3 µg/µL 1,2-dioleoyl-sn-glycerol resuspended by sonication in 4 mM EGTA in 25 mM Hepes pH 8). The reaction was stopped after 5 min by adding 200 µL of freshly prepared 1 M HCl and lipid was extracted by adding 200 µL of CH3OH:CHCl3 1:1 solution and vortexing for 1 min. The two phases were separated by centrifugation (12,000 RCF for 2 min). Twenty-five microlitres of the lower organic phase was spotted in small drops on silica TLC plates. TLC was run 10 cm and dried before radioactive signals were detected by GS-250 molecular imager and was quantified by quantity one (Bio-Rad, Hercules, CA) software assuring the absence of saturated spots.
Percentage residual activity was calculated as follows: (OST-DGKα homogenate with inhibitor – vector homogenate)/(OST-DGKα homogenate with DMSO – vector homogenate)×100.
Data for the screen on OST-DGKα homogenates are the mean of duplicates. The compounds showing inhibitory activity in this assay were tested >4 times and the mean ± SEM is reported.
To calculate IC50 values of active inhibitors, the inhibitor activity was measured at least three times at 0.1, 1.0, 10.0, and 100.0 µM concentration. Data were analysed using [inhibitor] vs. normalised response parameters with least square [ordinary] curve fitting method in GraphPad PRISM 8.0 software (GraphPad Software, La Jolla, CA) mentioning 95% confidence interval and IC50 values always greater than 0.0. […] In all the experiments, the data were normalised with the controls.
Each inhibitor was tested in duplicate at least once, and DGKα activity was expressed as percentage of residual DGKα activity compared to DMSO control in the same assay. Assay uses OST-DGKα overexpressing cell lysates in presence of saturating exogenous DAG and ATP. We considered R59022 (commercially available) and the lead compound Amb63975230 as our reference molecules.
To measure the inhibitor potency, we determined the IC50 values for the compounds that resulted active when tested at 100 µM by measuring the residual OST-DGKα activity over a dose range of inhibitor concentrations (0.1 µM, 1.0 µM, 10.0 µM, and 100.0 µM).

The next data set concerns 5HT2A. The arrangement: method as in PMID 27974147. The note with it: antagonistic activity on 5-HT2 receptors; cited from earlier work.
Details of data set [2]: method as in PMID 26420856. The conditions noted are these: mice, rapid clearance; cited from earlier work.
The next data set deals with DGK isoforms. The arrangement: method as in PMID 10718334, PMID 23949095. The note with it: cited from earlier work.
The subject of data set [3] is T cells from XLP-1 patients. Also noted: method as in PMID 26764158. The conditions noted are these: pre-treatment with inhibitor; cited from earlier work.
In another data set the test system is XLP-1 model. The conditions noted are these: cited from earlier work.
For data set [4], the target named is T1, DGKα. Also noted: expressed in transfected cells; host or cells: MDCK cells (vector-infected, doxycycline-induced), crude homogenate; method as in PMID 30611057. The note with it: in our assay system; cited from earlier work.
Data set [5] concerns serotonin receptors. Briefly: Superoxide anion production: serotonin effect on PMA-induced oxidative burst in monocytes. In kind it is cell-based. The conditions noted are these: drugs 10 µM, 1 h; serotonin 1 µM; PMA 1 µM 30 min; human monocytes. As to the method:
Human monocytes were isolated from healthy anonymous human buffy coats (provided by the Transfusion Service of Ospedale Maggiore della Carità, Novara, Italy) by the standard technique of dextran sedimentation and Histopaque (density = 1.077 g cm^3, Sigma-Aldrich, Milano, Italy) gradient centrifugation (400×g, 30 min, room temperature) and recovered by fine suction at the interface, as described previously. Purified monocytes populations were obtained by adhesion (90 min, 37 °C, 5% CO2) in serum-free RPMI 1640 medium (Sigma-Aldrich, Milano, Italy) supplemented with 2 mM glutamine and antibiotics. Cell viability (trypan blue dye exclusion) was usually >98%.
All the experiments were performed in triplicate using cells isolated from each single donor.
Monocytes (250,000 cells/well) were treated for 1 h with the indicated drugs (10 µM) with or without serotonin (1 µM). Then, cells were stimulated with phorbol 12-myristate 13-acetate (PMA; Sigma-Aldrich, Milano, Italy) 1 µM for 30 min. PMA is a well-known stimulus that induces a strong and significant respiratory burst via PKC activation. Superoxide anion production was then evaluated by the superoxide dismutase (SOD)-sensitive cytochrome C (CytC) reduction assay and expressed as nmoles CytC reduced/10^6 cells/30 min, using an extinction coefficient of 21.1 mM. To avoid interference with spectrophotometrical recordings, cells were incubated with RPMI 1640 without phenol red, antibiotics, and FBS.
To this purpose, we measured the effect of serotonin on PMA-induced oxidative burst in human monocytes. As previously shown, 1 µM serotonin reverses the oxidative burst to control values.
Figure 8. […] Results are expressed as n moles of reduced cytochrome C/10^6 cells. Data are means ± SEM of 10 independent experiments performed in triplicate.

For data set [6], the target named is serotonin receptors. The conditions noted are these: read-out: IC50 as serotonin antagonist; cited from earlier work.
A further data set addresses dopaminergic receptors. The arrangement: method as in PMID 2860558. The note with it: cited from earlier work.
Details of data set [7]: method as in PMID 27974147. The note with it: in human; cited from earlier work.

T1 sequence (P23743 whole entry): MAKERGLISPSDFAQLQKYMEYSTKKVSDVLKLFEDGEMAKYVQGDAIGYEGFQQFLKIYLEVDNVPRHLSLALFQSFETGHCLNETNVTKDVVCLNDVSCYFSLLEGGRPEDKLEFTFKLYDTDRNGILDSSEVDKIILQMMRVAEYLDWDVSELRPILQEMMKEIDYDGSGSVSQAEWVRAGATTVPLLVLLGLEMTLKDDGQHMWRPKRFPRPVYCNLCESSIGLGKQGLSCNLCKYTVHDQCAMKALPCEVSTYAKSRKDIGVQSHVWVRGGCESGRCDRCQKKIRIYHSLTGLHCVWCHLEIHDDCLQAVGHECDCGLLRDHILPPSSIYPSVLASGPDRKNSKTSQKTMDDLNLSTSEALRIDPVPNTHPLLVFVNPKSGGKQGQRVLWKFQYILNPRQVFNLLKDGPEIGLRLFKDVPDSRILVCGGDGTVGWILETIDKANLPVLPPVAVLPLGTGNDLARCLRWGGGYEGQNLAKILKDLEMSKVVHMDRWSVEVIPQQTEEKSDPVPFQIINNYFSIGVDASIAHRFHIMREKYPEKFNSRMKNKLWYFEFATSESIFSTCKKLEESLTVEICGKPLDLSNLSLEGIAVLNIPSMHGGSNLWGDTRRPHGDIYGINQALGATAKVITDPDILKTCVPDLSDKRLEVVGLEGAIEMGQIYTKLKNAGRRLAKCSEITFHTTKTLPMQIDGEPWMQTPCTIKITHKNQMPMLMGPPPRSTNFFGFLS

In general, IC50 refers to the concentration needed to halve the response being measured. With `Cc1ccc2c(C(=O)CN3CCN(C(=O)c4cccs4)CC3)c(C)[nH]c2c1` [Compound 14, 1-(2,6-Dimethyl-1H-indol-3-yl)-2-(4-(thiophene-2-carbonyl)piperazin-1-yl)ethan-1-one], in the data set on SAP-deficient T cells, the “effect on RICD in control siRNA-transfected cells” value is recorded as “slightly reducing”. Further, the remaining activity at 100 µM on DGKα [1] (100 µM) was determined as 6%. Moreover, half-maximal inhibition at DGKα [1] (IC50) required 3000 nM.

Broadly, the inhibition is the drop in the measured response relative to a control, in per cent. On to `Cc1nc2sccn2c(=O)c1CCN1CCC(=C(c2ccccc2)c2ccc(F)cc2)CC1` [Compound R59022], for which the IC50 in the data set on 5HT2A was 2.2 nM; against DGKα [1] it was 15200 ± 5800 nM. For the same compound, in data set [2], the t1/2 is on record as approximately 2 h. For the same compound, in the data set with DGK isoforms, the DGK isoforms targeted entry was “type III and V (ε e θ)”. For the same compound, in data set [3], the “rescue of defective RICD in T cells from XLP-1 patients” value is on record as “rescued”. Further, the “effect in an in vivo model of XLP-1” value in the data set with XLP-1 model is recorded as “beneficial effects”. Further, the inhibition at 100 µM against DGKα [1] (100 µM) stood at 73%. Also, the remaining activity at 100 µM at DGKα [1] (100 µM) came to 27%.

As to `O=c1c2ccccc2[nH]c(=S)n1CCN1CCC(=C(c2ccc(F)cc2)c2ccc(F)cc2)CC1` [Compound R59949, 3-[2-(4-[bis-(4-fluorophenyl)methylene]-1-piperidinyl)ethyl]-2,3-dihydro-2-thioxo-4(1h)quinazolinone], the IC50 in the data set on 5HT2A is 9.2 nM; on DGKα [4], 11000 nM. Further, the t1/2 in data set [2] is given as approximately 2 h. Moreover, the DGK isoforms targeted result in the data set on DGK isoforms was “type I and II (γ, δ e κ)”. The “rescue of defective RICD in T cells from XLP-1 patients” value in data set [3] was “rescued”. Moreover, the remaining activity at 100 µM at DGKα [1] (100 µM) was found to be 28%.

Take `O=C(c1ccc(F)cc1)C1CCN(CCn2c(=O)[nH]c3ccccc3c2=O)CC1` [ketanserin, reference compound]: the “effect on serotonin action on PMA-induced oxidative burst” value in the data set with serotonin receptors [5] is listed as “impaired serotonin action”. The “rescue of RICD (apoptosis) in SAP-deficient T cells” value with SAP-deficient T cells (SAP siRNA) is “inactive”.

Turning to `Cc1nc2sccn2c(=O)c1CCN1CCC(=C(c2ccc(F)cc2)c2ccc(F)cc2)CC1` [ritanserin], the “effect on serotonin action on PMA-induced oxidative burst” value in the data set on serotonin receptors [5] was “impaired serotonin action”. Further, the IC50 is 0.9 nM on serotonin receptors [6], 69 nM at dopaminergic receptors and 17000 nM on DGKα [4]. Also, in data set [7], the t1/2 is 40 h.
